Holding throughout (assay type): cell-based
One assay concerns A549 cells. The experiment in a line: Image analysis of chromosome segregation. The following applies: 10 μM, 24 hours. The source says:
(§1) Image analysis: Cells were fixed and stained with Hoechst dye and anti-(3-tubulin, anti-pericentrin and anti-centromere antibodies. Images were taken on a BD Pathway high content imaging system. For cell cycle analysis, cells were fixed, stained with propidium iodide and analyzed by FACS. For Western blot analysis, cell lysates were run on SDS-polyacrylamide gels and proteins were transferred to PVDF membrane. Membranes were probed with the indicated antibodies.
Cells were stained with Hoechst dye (blue) and anti-tubulin (green), anti-pericentrin (red) and anti-centromere (white) antibodies.

Another assay relates to HCT-116 cells. The experiment in a line: Cell cycle analysis by FACS (propidium iodide). The following applies: 1 μM, 24, 48 or 72 hours.
From the text: as §1
Cells were fixed, stained with propidium iodide and analyzed by fluorescence activated cell sorting (FACS) using a FACScan instrument.
Background: A flow cytometer gives signals particle by particle.

A further assay has as its system p53 pathway. The experiment in a line: Western blot of p53 and p21 in HCT-116 cells.
From the text: as §1
(§2) Western blot analyses: Cells were lysed in 10 mM Tris-HCl pH 7.5, 1 mM EDTA, 150 mM NaCl, 10% glycerol, protease inhibitor cocktail, phosphatase 1, and phosphatase 2. Protein yields were determined by Bradford assay and equivalent amounts of protein were loaded for each sample.
Antibodies: All antibodies were purchased from Cell Signaling Technology.
Cell lysates were analyzed by Western blot with anti-p53, anti-p21 or anti-β-actin antibodies (see FIG. 4A).
(§3) p53 was previously reported to suppress the expression of survivin. […] Cell lysates were analyzed by Western blot with anti-p53, anti-survivin or anti-β-actin antibodies (see FIG. 4C). […] Induction of p53 preceded the loss of survivin.

In another assay the test system is p21 mRNA. The experiment in a line: qRT-PCR of p21 mRNA in HCT-116 cells. The following applies: 1 μM, time course, relative to 7 hour DMSO control. Here is the method:
For qRT-PCR: Primer probe sets for p21 and GAPDH were purchased from Applied Biosystems. qRT-PCR was performed using the Quantitect Probe RT-PCR Kit from Qiagen following the standard protocol.
The p21 mRNA levels were normalized to the GAPDH mRNA levels from the same total RNA sample.

Another assay deals with survivin. The experiment in a line: Western blot of survivin in HCT-116 cells. Conditions: increasing concentrations, 48 hours. Here is the method:
as §2, §3
(Immunoblotting shows a protein as a band on a membrane.)

The subject of another assay is p53. The experiment in a line: Western blot with phosphospecific anti-p53 antibodies in HCT-116 cells. The following applies: 1 μM, 48 hours. Here is the method:
as §2
Phosphorylation of p53 at various sites on the N-terminus results in the stabilization of p53. […] Cell lysates were analyzed by Western blot with anti-GAPDH, anti-p53 or the phosphospecific anti-p53 antibodies.

In a further assay the test system is histone H2AX. The experiment in a line: Western blot of H2AX-pS139 in HCT-116 cells. The following applies: 1 μM, 7, 24, 36 or 48 hours. Here is the method:
as §2
Phosphorylation and stabilization of p53 occurs in response to DNA damage. Phosphorylation of H2AX functions to recruit DNA repair enzymes to sites of DNA damage and serves as a marker for DNA double strand breaks. […] Cell lysates were analyzed by Western blot with anti-H2AX-pS139 (gH2AX) or β-actin antibodies. […] Inhibition of TTK induces the phosphorylation of p53 on serine 15 and H2AX on serine 139.

Each structure is given as a SMILES string.

With `Cc1cc(N2CCOCC2)ccc1Nc1nc(NC2CCCCC2)c2nc[nH]c2n1` [Compound A, N6-cyclohexyl-N2-(2-methyl-4-morpholino-phenyl)-9H-purine-2,6-diamine], the chromosome segregation entry in the assay on A549 cells is given as “causes chromosome segregation defects”. The “DNA content (ploidy)” value in the assay with HCT-116 cells is “both aneuploidy, as seen in FIG. 3 by a broadening of the 2N and 4N peaks, as well as the formation of tetraploid (8N) cells”. In addition, the “time of maximal induction of the p53 pathway” value in the assay with p53 pathway (1 μM) was at most 36 h. The “p53 pathway activation (p53, p21 protein)” value in the assay with p53 pathway (1 μM, time course) was “activate the p53 pathway in a time- and dose-dependent manner”. For the same compound, the p53 protein induction entry in the assay with p53 pathway (increasing concentrations, 48 hours) was “induced p53 in a dose- and time-dependent manner”. Moreover, the “p21 mRNA normalized to GAPDH mRNA” value in the assay with p21 mRNA is given as “induced in a time-dependent manner”. Moreover, the survivin protein entry in the assay on survivin is listed as “decrease in survivin protein”. For the same compound, the “site of p53 phosphorylation” value in the assay on p53 is “phosphorylated on serine 15”. Further, in the assay on histone H2AX, the “phosphorylation of serine 139 on H2AX” value was “induced by Compound A in a time-dependent manner”.

The values are drawn from US20120122840A1, “COMPOUNDS AND THERAPEUTIC USES THEREOF” (Myrexis, Inc., priority 2009, published 2012).
